# Experimental data taken from paper PMC5428020 (Chemical Science, 2017).
# Assay: Water solubility as observed during handling, NMR and crystallization
# Type: physicochemical
substance,measurement,value
Fmoc–Q^SO3H–OH [Compound 14],solubility in water (in words),surprisingly high
